The text below walks through data of patent publication US8895504B2, “Amylin derivatives” (priority 2008, dated 2014).

This assay deals with T1, Amylin 3(a) receptor (human calcitonin receptor (CTa) and RAMP-3) (Homo sapiens, UniProt O60896+P30988).
T1 construct: expressed in transfected cells; host or cells: BHK570 cells, stably transfected with a CRE-luciferase reporter
Description: Luciferase assay (III), BHK Amylin 3(a)//CRE-luc cells. Format: cell-based. Particulars: BHK cells with Amylin 3(a) receptor and CRE luciferase reporter, 4 hours incubation; read-out: Potency Luciferase. In short, it runs like this:
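Read-out is CRE-driven luciferase luminescence, taken 30 min after LucLite addition at room temperature. Compounds were incubated 4 h at 37° C in assay medium (10% FBS, 10 mM Hepes, pH 7,4). The cell line is BHK570 co-transfected with human calcitonin receptor CTa and RAMP-3, seeded overnight before use.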
A general note: In a reporter assay the amount or activity of a reporter protein is the signal.

*1 amine or outer side, *2 acyl side, *3 side chain or, on linkers, in order; H or OH if unused. Where a SMILES comes first, the peptide text is derived from it. Bridges are numbered along the chain shown (N, C = ends). The star is where a group is joined. C20 diacid = O=C(O)CCCCCCCCCCCCCCCCCCC(=O)*; C18 diacid = O=C(O)CCCCCCCCCCCCCCCCC(=O)*; γGlu = O=C(O)[C@H](CCC(=O)[*:2])N[*:1]; AEEA = NCCOCCOCC(=O)O

T1 sequence (O60896 24-148): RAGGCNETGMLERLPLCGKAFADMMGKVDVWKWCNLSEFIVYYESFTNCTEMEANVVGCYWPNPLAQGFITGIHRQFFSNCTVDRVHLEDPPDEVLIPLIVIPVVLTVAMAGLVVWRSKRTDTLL
T1 sequence (P30988 25-474): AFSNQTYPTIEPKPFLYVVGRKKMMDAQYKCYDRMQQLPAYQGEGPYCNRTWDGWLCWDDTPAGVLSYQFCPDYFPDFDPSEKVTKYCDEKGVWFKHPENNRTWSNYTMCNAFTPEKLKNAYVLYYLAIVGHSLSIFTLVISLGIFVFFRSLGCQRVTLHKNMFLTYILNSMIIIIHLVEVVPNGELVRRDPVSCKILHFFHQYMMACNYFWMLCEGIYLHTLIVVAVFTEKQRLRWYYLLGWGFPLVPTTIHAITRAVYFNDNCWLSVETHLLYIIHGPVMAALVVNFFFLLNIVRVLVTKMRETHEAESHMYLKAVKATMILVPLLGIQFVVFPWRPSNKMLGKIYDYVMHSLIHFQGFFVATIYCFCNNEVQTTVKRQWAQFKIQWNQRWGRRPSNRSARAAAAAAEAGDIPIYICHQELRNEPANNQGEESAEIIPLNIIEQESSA

As for `CC[C@H](C)[C@H](NC(=O)[C@@H]1CCCN1C(=O)CNC(=O)[C@H](Cc1ccccc1)NC(=O)[C@H](CC(N)=O)NC(=O)[C@H](CC(N)=O)NC(=O)[C@H](CO)NC(=O)[C@H](CO)NC(=O)[C@H](Cc1c[nH]cn1)NC(=O)[C@H](Cc1c[nH]cn1)NC(=O)[C@H](CC(C)C)NC(=O)[C@H](Cc1ccccc1)NC(=O)[C@H](CC(N)=O)NC(=O)[C@H](C)NC(=O)[C@H](CC(C)C)NC(=O)[C@H](CCCNC(=N)N)NC(=O)[C@H](CCC(N)=O)NC(=O)[C@@H](NC(=O)[C@H](C)NC(=O)[C@@H]1CSSC[C@H](NC(=O)COCCOCCNC(=O)COCCOCCNC(=O)CC[C@H](NC(=O)CCCCCCCCCCCCCCCCC(=O)O)C(=O)O)C(=O)N[C@@H](CC(N)=O)C(=O)N[C@@H]([C@@H](C)O)C(=O)N[C@@H](C)C(=O)N[C@@H]([C@@H](C)O)C(=O)N1)[C@@H](C)O)C(=O)N[C@@H](CC(C)C)C(=O)N1CCC[C@H]1C(=O)N1CCC[C@H]1C(=O)N[C@H](C(=O)N[C@@H](CC(N)=O)C(=O)N[C@H](C(=O)NCC(=O)N[C@@H](CO)C(=O)N[C@@H](CC(N)=O)C(=O)N[C@H](C(=O)N[C@@H](Cc1ccc(O)cc1)C(N)=O)[C@@H](C)O)C(C)C)[C@@H](C)O` [Example 62, N-alpha-[2-(2-{2-[2-(2-{2-[(S)-4-Carboxy-4-(17-carboxyheptadecanoylamino)butyrylamino]ethoxy}ethoxy)acetylamino]ethoxy}ethoxy)acetyl][His17]-pramlintide (2-37)] ({C18 diacid-γGlu-AEEA-AEEA}-CNTATCATQRLANFLHHSSNNFGPILPPTNVGSNTY-NH2; disulfide 1-6), the EC50 turned out to be 0.04 nM.

On to `CC[C@H](C)[C@H](NC(=O)[C@@H]1CCCN1C(=O)CNC(=O)[C@H](Cc1ccccc1)NC(=O)[C@H](CC(N)=O)NC(=O)[C@H](CC(N)=O)NC(=O)[C@H](CO)NC(=O)[C@H](CO)NC(=O)[C@H](Cc1c[nH]cn1)NC(=O)[C@H](CCCNC(=N)N)NC(=O)[C@H](CC(C)C)NC(=O)[C@H](Cc1ccccc1)NC(=O)[C@H](CC(N)=O)NC(=O)[C@H](C)NC(=O)[C@H](CC(C)C)NC(=O)[C@H](CCCNC(=N)N)NC(=O)[C@H](CCC(N)=O)NC(=O)[C@@H](NC(=O)[C@H](C)NC(=O)[C@@H]1CSSC[C@H](NC(=O)[C@H](CCCCN)NC(=O)[C@H](CCCNC(=N)N)NC(=O)CC[C@H](NC(=O)CCCCCCCCCCCCCCCCC(=O)O)C(=O)O)C(=O)N[C@@H](CC(N)=O)C(=O)N[C@@H]([C@@H](C)O)C(=O)N[C@@H](C)C(=O)N[C@@H]([C@@H](C)O)C(=O)N1)[C@@H](C)O)C(=O)N[C@@H](CC(C)C)C(=O)N1CCC[C@H]1C(=O)N1CCC[C@H]1C(=O)N[C@H](C(=O)N[C@@H](CC(N)=O)C(=O)N[C@H](C(=O)NCC(=O)N[C@@H](CO)C(=O)N[C@@H](CC(N)=O)C(=O)N[C@H](C(=O)N[C@@H](Cc1ccc(O)cc1)C(N)=O)[C@@H](C)O)C(C)C)[C@@H](C)O` [Example 26, N-alpha-[(S)-4-Carboxy-4-(17-carboxyheptadecanoylamino)butyryl]-Arg-[Arg17]-pramlintide] ({C18 diacid-γGlu}-RKCNTATCATQRLANFLRHSSNNFGPILPPTNVGSNTY-NH2; disulfide 3-8), for which the EC50 was determined as 0.05 nM. Take `CC[C@H](C)[C@H](NC(=O)[C@@H]1CCCN1C(=O)CNC(=O)[C@H](Cc1ccccc1)NC(=O)[C@H](CC(N)=O)NC(=O)[C@H](CC(N)=O)NC(=O)[C@H](CO)NC(=O)[C@H](CO)NC(=O)[C@H](Cc1c[nH]cn1)NC(=O)[C@H](C)NC(=O)[C@H](CC(C)C)NC(=O)[C@H](Cc1ccccc1)NC(=O)[C@H](CC(N)=O)NC(=O)[C@H](C)NC(=O)[C@H](CC(C)C)NC(=O)[C@H](CCCNC(=N)N)NC(=O)[C@H](CCC(N)=O)NC(=O)[C@@H](NC(=O)[C@H](C)NC(=O)[C@@H]1CSSC[C@H](NC(=O)[C@H](CCCCN)NC(=O)[C@H](CCCNC(=N)N)NC(=O)CC[C@H](NC(=O)CCCCCCCCCCCCCCCCCCC(=O)O)C(=O)O)C(=O)N[C@@H](CC(N)=O)C(=O)N[C@@H]([C@@H](C)O)C(=O)N[C@@H](C)C(=O)N[C@@H]([C@@H](C)O)C(=O)N1)[C@@H](C)O)C(=O)N[C@@H](CC(C)C)C(=O)N1CCC[C@H]1C(=O)N1CCC[C@H]1C(=O)N[C@H](C(=O)N[C@@H](CC(N)=O)C(=O)N[C@H](C(=O)NCC(=O)N[C@@H](CO)C(=O)N[C@@H](CC(N)=O)C(=O)N[C@H](C(=O)N[C@@H](Cc1ccc(O)cc1)C(N)=O)[C@@H](C)O)C(C)C)[C@@H](C)O` [Example 19, N-alpha-[(S)-4-Carboxy-4-(19-carboxynonadecanoylamino)butyryl]-Arg-[Ala17]-pramlintide] ({C20 diacid-γGlu}-RKCNTATCATQRLANFLAHSSNNFGPILPPTNVGSNTY-NH2; disulfide 3-8): the EC50 stood at 0.1 nM.

As for `CC(C)C[C@H](NC(=O)[C@H](CCCNC(=N)N)NC(=O)[C@H](CCC(N)=O)NC(=O)[C@@H](NC(=O)[C@H](C)NC(=O)[C@@H]1CSSC[C@H](NC(=O)[C@H](CCC(=O)O)NC(=O)[C@H](CCCNC(=N)N)NC(=O)[C@H](CCC(=O)O)NC(=O)CC[C@H](NC(=O)CCCCCCCCCCCCCCCCCCC(=O)O)C(=O)O)C(=O)N[C@@H](CC(N)=O)C(=O)N[C@@H]([C@@H](C)O)C(=O)N[C@@H](C)C(=O)N[C@@H]([C@@H](C)O)C(=O)N1)[C@@H](C)O)C(=O)N[C@@H](C)C(=O)N[C@@H](CC(N)=O)C(=O)N[C@@H](Cc1ccccc1)C(=O)N[C@@H](CC(C)C)C(=O)N[C@@H](CCCNC(=N)N)C(=O)N[C@@H](Cc1c[nH]cn1)C(=O)N[C@@H](CO)C(=O)N[C@@H](CO)C(=O)N[C@@H](CC(N)=O)C(=O)N[C@@H](CC(N)=O)C(=O)N[C@@H](Cc1ccccc1)C(=O)NCC(=O)N[C@@H](C)C(=O)N1CCC[C@H]1C(=O)N[C@@H](CC(C)C)C(=O)N[C@@H](CO)C(=O)N[C@@H](CO)C(=O)N[C@H](C(=O)N[C@@H](CC(N)=O)C(=O)N[C@H](C(=O)NCC(=O)N[C@@H](CO)C(=O)N[C@@H](CC(N)=O)C(=O)N[C@H](C(=O)N[C@@H](Cc1ccc(O)cc1)C(N)=O)[C@@H](C)O)C(C)C)[C@@H](C)O` [Example 46, N-alpha-[(S)-4-Carboxy-4-(19-carboxynonadecanoylamino)butyryl]-Glu-Arg-[Glu1,Arg17,Ala25,Pro26,Ser28,Ser29]-pramlintide] ({C20 diacid-γGlu}-ERECNTATCATQRLANFLRHSSNNFGAPLSSTNVGSNTY-NH2; disulfide 4-9), the EC50 was 0.2 nM. For the molecule `CC[C@H](C)[C@H](NC(=O)[C@@H]1CCCN1C(=O)CNC(=O)[C@H](Cc1ccccc1)NC(=O)[C@H](CC(N)=O)NC(=O)[C@H](CCC(N)=O)NC(=O)[C@H](CO)NC(=O)[C@H](CO)NC(=O)[C@H](Cc1c[nH]cn1)NC(=O)[C@H](Cc1c[nH]cn1)NC(=O)[C@H](CC(C)C)NC(=O)[C@H](Cc1ccccc1)NC(=O)[C@H](CC(N)=O)NC(=O)[C@H](C)NC(=O)[C@H](CC(C)C)NC(=O)[C@H](CCCNC(=N)N)NC(=O)[C@H](CCC(N)=O)NC(=O)[C@@H](NC(=O)[C@H](C)NC(=O)[C@@H]1CSSC[C@H](NC(=O)[C@H](CCCNC(=N)N)NC(=O)[C@H](Cc2c[nH]cn2)NC(=O)[C@H](Cc2c[nH]cn2)NC(=O)COCCOCCNC(=O)CC[C@H](NC(=O)CCCCCCCCCCCCCCCCCCC(=O)O)C(=O)O)C(=O)N[C@@H](CC(N)=O)C(=O)N[C@@H]([C@@H](C)O)C(=O)N[C@@H](C)C(=O)N[C@@H]([C@@H](C)O)C(=O)N1)[C@@H](C)O)C(=O)N[C@@H](CC(C)C)C(=O)N1CCC[C@H]1C(=O)N1CCC[C@H]1C(=O)N[C@H](C(=O)N[C@@H](CC(N)=O)C(=O)N[C@H](C(=O)NCC(=O)N[C@@H](CO)C(=O)N[C@@H](CC(N)=O)C(=O)N[C@H](C(=O)N[C@@H](Cc1ccc(O)cc1)C(N)=O)[C@@H](C)O)C(C)C)[C@@H](C)O` [Example 59, N-alpha-[2-(2-{2-[4-(S)-Carboxy-4-(19-carboxynonadecanoylamino)butyrylamino]ethoxy}ethoxy)acetyl]-His-His-[Arg1His17,Gln21]-pramlintide] ({C20 diacid-γGlu-AEEA}-HHRCNTATCATQRLANFLHHSSQNFGPILPPTNVGSNTY-NH2; disulfide 4-9), the EC50 came to 0.06 nM. Take `CC(C)C[C@H](NC(=O)[C@H](CCCNC(=N)N)NC(=O)[C@H](CCC(N)=O)NC(=O)[C@@H](NC(=O)[C@H](C)NC(=O)[C@@H]1CSSC[C@H](NC(=O)[C@H](CCC(=O)O)NC(=O)[C@H](CCCNC(=N)N)NC(=O)[C@H](CCC(=O)O)NC(=O)CC[C@H](NC(=O)CCCCCCCCCCCCCCCCCCC(=O)O)C(=O)O)C(=O)N[C@@H](CC(N)=O)C(=O)N[C@@H]([C@@H](C)O)C(=O)N[C@@H](C)C(=O)N[C@@H]([C@@H](C)O)C(=O)N1)[C@@H](C)O)C(=O)N[C@@H](C)C(=O)N[C@@H](CC(N)=O)C(=O)N[C@@H](Cc1ccccc1)C(=O)N[C@@H](CC(C)C)C(=O)N[C@@H](Cc1c[nH]cn1)C(=O)N[C@@H](Cc1c[nH]cn1)C(=O)N[C@@H](CO)C(=O)N[C@@H](CO)C(=O)N[C@@H](CCC(N)=O)C(=O)N[C@@H](CC(N)=O)C(=O)N[C@@H](Cc1ccccc1)C(=O)NCC(=O)N[C@@H](C)C(=O)N1CCC[C@H]1C(=O)N[C@@H](CC(C)C)C(=O)N[C@@H](CO)C(=O)N[C@@H](CO)C(=O)N[C@H](C(=O)N[C@@H](CC(N)=O)C(=O)N[C@H](C(=O)NCC(=O)N[C@@H](CO)C(=O)N[C@@H](CC(N)=O)C(=O)N[C@H](C(=O)N[C@@H](Cc1ccc(O)cc1)C(N)=O)[C@@H](C)O)C(C)C)[C@@H](C)O` [Example 41, N-alpha-[(S)-4-Carboxy-4-(19-carboxynonadecanoylamino)butyryl]-Glu-Arg-[Glu1,His17,Gln21,Ala25,Pro26,Ser28,Ser29]-pramlintide] ({C20 diacid-γGlu}-ERECNTATCATQRLANFLHHSSQNFGAPLSSTNVGSNTY-NH2; disulfide 4-9): the EC50 was 0.1 nM.
